The source of these data is patent publication US6472348B1, “Pyridone derivatives and herbicides” (Kumiai Chemical Industry Co., Ltd., priority 1996, dated 2002).

Structures are written as SMILES.

Assay type in all cases: in vivo
Common to all, as to design: scale not given here
What all share (conditions): 21st day after application

The test system of data set [1] is green foxtail (Se). The data set is described as follows: Test Example 5: crop plant selectivity by upland field soil treatment (wheat), herbicidal effects. The method in brief:
(§1)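 Upland soil-treatment selectivity test: crop and weed seeds are sown together in sand-filled pots, soil-covered, then treated and grown under glass until rating at 21 days.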

Data set [2] concerns pale smartweed (Po). Described as above. The method in brief: as §1
In data set [3] the test system is slender amaranth (Am). The data set is described as above. The gist of the method: as §1
In data set [4] the test system is China jute (Ab). The data set is described as follows: Test Example 6: crop plant selectivity by upland field soil treatment (soybean), herbicidal effects. The method in brief: (§2)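 Seeds are sown in sand and covered with soil. The soil is treated with test compound. Pots are kept in a greenhouse. Weed control and soybean damage are rated visually 21 days after application.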

Data set [5] relates to common lambsquarters (Ch). The data set is described as above. The method in brief:
as §2

Data set [6] relates to green foxtail (Se). The data set is described as above. The gist of the method:
as §2

Data set [7] concerns pale smartweed (Po). Described as above. The method in brief: as §2
Data set [8] deals with slender amaranth (Am). The description is as above. The gist of the method:
as §2

Data set [9] concerns corn (Ze). The experiment in a line: Test Example 7: crop plant selectivity by upland field soil treatment (corn), phytotoxicity. The method in brief: (§3)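 Greenhouse pot test in sand with soil cover over seeds of corn and weeds sown together; scored 21 d after treatment.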
In data set [10] the test system is slender amaranth (Am). The data set is described as follows: Test Example 7: crop plant selectivity by upland field soil treatment (corn), herbicidal effects. The method in brief: as §3

On to `Cc1cc2c(-c3ccc(C(F)(F)F)n(C)c3=O)c(F)cc(Cl)c2o1` [Compound 4-1], for which the “Herbicidal effects Se” value in data set [1] (dose 1.6 g ai/10a), in data set [1] (dose 6.3 g ai/10a), in data set [6] (dose 1.6 g ai/10a) and in data set [6] (dose 6.3 g ai/10a) was 5 in each case. Moreover, the “Herbicidal effects Po” value in data set [2] (dose 1.6 g ai/10a), in data set [2] (dose 6.3 g ai/10a), in data set [7] (dose 1.6 g ai/10a) and in [7] (dose 6.3 g ai/10a) was 5 throughout. In addition, the “Herbicidal effects Am” value in data set [3] (dose 1.6 g ai/10a), in data set [3] (dose 6.3 g ai/10a), in data set [8] (dose 1.6 g ai/10a), in data set [8] (dose 6.3 g ai/10a), in data set [10] (dose 1.6 g ai/10a) and in [10] (dose 6.3 g ai/10a) was 5 throughout. In addition, the “Herbicidal effects Ab” value in data set [4] (dose 1.6 g ai/10a) and in data set [4] (dose 6.3 g ai/10a) was 5 throughout. The “Herbicidal effects Ch” value in data set [5] (dose 1.6 g ai/10a) and in data set [5] (dose 6.3 g ai/10a) was 5 each time. Further, the “Phytotoxicity Ze” value in data set [9] (dose 1.6 g ai/10a) was 0; in data set [9] (dose 6.3 g ai/10a), 1.
With `CCc1cc2c(-c3ccc(C(F)(F)F)n(C)c3=O)c(F)cc(Cl)c2o1` [Compound 4-2], the “Herbicidal effects Se” value in [1] (dose 1.6 g ai/10a) and in data set [6] (dose 1.6 g ai/10a) was 5 in each case. The “Herbicidal effects Po” value in data set [2] (dose 1.6 g ai/10a) and in data set [7] (dose 1.6 g ai/10a) was 5 throughout. In addition, the “Herbicidal effects Am” value in data set [3] (dose 1.6 g ai/10a), in [8] (dose 1.6 g ai/10a), in [10] (dose 1.6 g ai/10a) and in data set [10] (dose 6.3 g ai/10a) was 5 throughout. Also, the “Herbicidal effects Ab” value in data set [4] (dose 1.6 g ai/10a) stood at 5. In addition, the “Herbicidal effects Ch” value in [5] (dose 1.6 g ai/10a) is on record as 5. Also, the “Phytotoxicity Ze” value in data set [9] (dose 1.6 g ai/10a) and in data set [9] (dose 6.3 g ai/10a) was 1 each time.
Take `CCCc1cc2c(-c3ccc(C(F)(F)F)n(C)c3=O)c(F)cc(Cl)c2o1` [Compound 4-3]: the “Herbicidal effects Se” value in data set [1] (dose 6.3 g ai/10a) and in data set [6] (dose 6.3 g ai/10a) was 5 throughout. Also, the “Herbicidal effects Po” value in data set [2] (dose 6.3 g ai/10a) and in data set [7] (dose 6.3 g ai/10a) was 5 throughout. The “Herbicidal effects Am” value in data set [3] (dose 6.3 g ai/10a), in data set [8] (dose 6.3 g ai/10a) and in data set [10] (dose 6.3 g ai/10a) was 5 throughout. Further, the “Herbicidal effects Ab” value in data set [4] (dose 6.3 g ai/10a) was 5. The “Herbicidal effects Ch” value in data set [5] (dose 6.3 g ai/10a) came to 5. Besides, in [9] (dose 6.3 g ai/10a), the “Phytotoxicity Ze” value was determined as 1.
For `CCc1cc2c(Cl)cc(F)c(-c3ccc(C(F)(F)F)n(C)c3=O)c2o1` [Compound 5-2], the “Herbicidal effects Se” value in data set [1] (dose 6.3 g ai/10a) and in [6] (dose 6.3 g ai/10a) was 5 each time. Besides, the “Herbicidal effects Po” value in [2] (dose 6.3 g ai/10a) and in data set [7] (dose 6.3 g ai/10a) was 5 throughout. Besides, the “Herbicidal effects Am” value in data set [3] (dose 6.3 g ai/10a), in [8] (dose 6.3 g ai/10a) and in [10] (dose 6.3 g ai/10a) was 5 in each case. Besides, in data set [4] (dose 6.3 g ai/10a), the “Herbicidal effects Ab” value turned out to be 5. Moreover, the “Herbicidal effects Ch” value in data set [5] (dose 6.3 g ai/10a) is on record as 5. Also, the “Phytotoxicity Ze” value in [9] (dose 6.3 g ai/10a) is given as 0.
As for `CON=Cc1cc(-c2ccc(C(F)(F)F)n(C)c2=O)c(F)cc1Cl` [Compound No. 1-72, 5-(1-methyl-6-trifluoromethyl-2(1H)-pyridon-3-yl)-2-chloro-4-fluorobenzaldehydeoxime-O-methyl ether], the “Herbicidal effects Se” value in [1] (dose 1.6 g ai/10a), in data set [6] (dose 1.6 g ai/10a) and in data set [6] (dose 6.3 g ai/10a) was 5 throughout. The “Herbicidal effects Po” value in data set [2] (dose 1.6 g ai/10a), in data set [7] (dose 1.6 g ai/10a) and in data set [7] (dose 6.3 g ai/10a) was 5 in each case. Moreover, the “Herbicidal effects Am” value in data set [3] (dose 1.6 g ai/10a), in data set [8] (dose 1.6 g ai/10a), in [8] (dose 6.3 g ai/10a) and in data set [10] (dose 1.6 g ai/10a) was 5 throughout. The “Herbicidal effects Ab” value in data set [4] (dose 1.6 g ai/10a) and in data set [4] (dose 6.3 g ai/10a) was 5 throughout. Also, the “Herbicidal effects Ch” value in data set [5] (dose 1.6 g ai/10a) and in [5] (dose 6.3 g ai/10a) was 5 in each case. In [9] (dose 1.6 g ai/10a), the “Phytotoxicity Ze” value came out at 0.
With `CCCC(=O)c1cc(-c2ccc(C(F)(F)F)n(C)c2=O)c(F)cc1Cl` [Compound No. 1-194, 3-[4-chloro-2-fluoro-5-(1-oxobutyl)phenyl]-1-methyl-6-trifluoromethyl-2(1H)-pyridone], the “Herbicidal effects Se” value in data set [1] (dose 6.3 g ai/10a) and in data set [6] (dose 6.3 g ai/10a) was 5 throughout. In addition, the “Herbicidal effects Po” value in [2] (dose 6.3 g ai/10a) and in data set [7] (dose 6.3 g ai/10a) was 5 throughout. Moreover, the “Herbicidal effects Am” value in [3] (dose 6.3 g ai/10a), in [8] (dose 6.3 g ai/10a) and in data set [10] (dose 6.3 g ai/10a) was 5 each time. In addition, the “Herbicidal effects Ab” value in data set [4] (dose 6.3 g ai/10a) came out at 5. For the same molecule, in [5] (dose 6.3 g ai/10a), the “Herbicidal effects Ch” value is 5. Also, the “Phytotoxicity Ze” value in [9] (dose 6.3 g ai/10a) is 0.
In the case of `C#CCn1c(=O)sc2cc(F)c(-c3ccc(C(F)(F)F)n(C)c3=O)cc21` [Compound No. 3-1, 3-[6-fluoro-3-(2-propynyl)-benzothiazolin-2-on-5-yl]-1-methyl-6-trifluoromethyl-2(1H)-pyridone], the “Herbicidal effects Se” value in data set [1] (dose 6.3 g ai/10a) and in [6] (dose 6.3 g ai/10a) was 5 throughout. Moreover, the “Herbicidal effects Po” value in [2] (dose 6.3 g ai/10a) and in data set [7] (dose 6.3 g ai/10a) was 5 in each case. Further, the “Herbicidal effects Am” value in [3] (dose 6.3 g ai/10a), in data set [8] (dose 6.3 g ai/10a), in data set [10] (dose 1.6 g ai/10a) and in [10] (dose 6.3 g ai/10a) was 5 each time. Also, in data set [4] (dose 6.3 g ai/10a), the “Herbicidal effects Ab” value was determined as 5. In [5] (dose 6.3 g ai/10a), the “Herbicidal effects Ch” value is 5. The “Phytotoxicity Ze” value in [9] (dose 1.6 g ai/10a) and in data set [9] (dose 6.3 g ai/10a) was 2 in each case.
As to `COCc1cc2c(-c3ccc(C(F)(F)F)n(C)c3=O)c(F)cc(Cl)c2o1` [Compound No. 4-4, 3-(7-chloro-5-fluoro-2-methoxymethylbenzofuran-4-yl)-1-methyl-6-trifluoromethyl-2-(1H)-pyridone], the “Herbicidal effects Se” value in [1] (dose 1.6 g ai/10a) and in data set [6] (dose 6.3 g ai/10a) was 5 each time. In addition, the “Herbicidal effects Po” value in data set [2] (dose 1.6 g ai/10a) and in data set [7] (dose 6.3 g ai/10a) was 5 each time. The “Herbicidal effects Am” value in [3] (dose 1.6 g ai/10a), in [8] (dose 6.3 g ai/10a), in data set [10] (dose 1.6 g ai/10a) and in [10] (dose 6.3 g ai/10a) was 5 each time. The “Herbicidal effects Ab” value in [4] (dose 6.3 g ai/10a) turned out to be 5. Moreover, the “Herbicidal effects Ch” value in [5] (dose 6.3 g ai/10a) is 5. Besides, the “Phytotoxicity Ze” value in data set [9] (dose 1.6 g ai/10a) is 1; in data set [9] (dose 6.3 g ai/10a), 2.
With `Cn1c(C(F)(F)F)ccc(-c2c(F)cc(Cl)c3oc(CO)cc23)c1=O` [Compound No. 4-5, 3-(7-chloro-5-fluoro-2-hydroxymethylbenzofuran-4-yl)-1-methyl-6-trifluoromethyl-2-(1H)-pyridone], the “Herbicidal effects Se” value in [1] (dose 6.3 g ai/10a) and in data set [6] (dose 6.3 g ai/10a) was 5 in each case. The “Herbicidal effects Po” value in [2] (dose 6.3 g ai/10a) and in data set [7] (dose 6.3 g ai/10a) was 5 in each case. For the same molecule, the “Herbicidal effects Am” value in data set [3] (dose 6.3 g ai/10a), in data set [8] (dose 6.3 g ai/10a) and in data set [10] (dose 6.3 g ai/10a) was 5 throughout. Further, the “Herbicidal effects Ab” value in data set [4] (dose 6.3 g ai/10a) stood at 5. In addition, the “Herbicidal effects Ch” value in [5] (dose 6.3 g ai/10a) is 5. In [9] (dose 6.3 g ai/10a), the “Phytotoxicity Ze” value was determined as 0.
For the molecule `Cn1c(C(F)(F)F)ccc(-c2c(F)cc(Cl)c3occc23)c1=O` [Compound No. 4-28, 3-(7-chloro-5-fluorobenzofuran-4-yl)-1-methyl-6-trifluoromethyl-2-(1H)-pyridone], the “Herbicidal effects Se” value in data set [1] (dose 6.3 g ai/10a) and in data set [6] (dose 1.6 g ai/10a) was 5 throughout. In addition, the “Herbicidal effects Po” value in [2] (dose 6.3 g ai/10a) and in data set [7] (dose 1.6 g ai/10a) was 5 throughout. Moreover, the “Herbicidal effects Am” value in data set [3] (dose 6.3 g ai/10a), in [8] (dose 1.6 g ai/10a) and in data set [10] (dose 1.6 g ai/10a) was 5 in each case. Further, the “Herbicidal effects Ab” value in data set [4] (dose 1.6 g ai/10a) is listed as 5. Besides, the “Herbicidal effects Ch” value in data set [5] (dose 1.6 g ai/10a) was determined as 5. Further, the “Phytotoxicity Ze” value in data set [9] (dose 1.6 g ai/10a) was found to be 1.
